Assay results reported in patent US20030134899A1, “Pharmaceutical combination of bicalutamide and tamoxifen for providing an anti-androgenic effect and an anti-oestrogenic effect” (priority 2002, published 2003).

Tests used:
free testosterone = experiment: Human clinical trial: free testosterone concentrations in healthy male volunteers; type: in vivo
Text: Key Inclusion Criteria: Male, aged 65 years or above showing no clinically significant abnormalities in routine haematological and biochemical tests and having endocrinology and prostate specific antigen (PSA) results within normal limits. Key Exclusion Criteria: Previous inclusion in a clinical trial using CASODEXTM; concurrent treatment with any drugs with the exception of paracetomol; history or presence of any testicular abnormality; history or presence of gastrointestinal, hepatic or renal disease, or other condition known to interfere with the absorption, distribution, metabolism or excretion of drugs; a clinically significant illness within 2 weeks of trial commencement; definite or suspected personal or family history of significant adverse drug reactions or any hypersensitivity to CASODEXTM or […]; treatment within the previous 3 months with any drugs known to have a well-defined potential for hepatotoxicity or hepatic interaction. Dosage: The CASODEXTM was administered daily at a dose of 150 mg and the […] was administered daily at a dose of 20 mg. All treatments were in tablet form and taken once daily. Daily treatment with CASODEXTM plus […] was for 6 weeks, this period being selected as the minimum time to attain steady-state plasma concentrations for the drugs. Another set of volunteers were administered CASODEXTM alone at a daily dose of 150 mg for 4 weeks. All treatments were in tablet form and taken once daily. Key Assessment: Free testosterone concentrations were measured during the course of the trial.

testosterone = conditions: cited from earlier work
testosterone, LH = conditions: cited from earlier work

Row | SMILES | Free testosterone, ratio to Day 1 (free testosterone; Day 29, CASODEX alone 150 mg daily for 4 weeks) | Free testosterone concentration, gmean (free testosterone; Day 29, CASODEX alone 150 mg daily for 4 weeks, n=7, pre-dose Day 1 baseline gmean 0.048) [nmol/L] | Increase in mean free testosterone concentration (free testosterone; by the end of the treatment period (4 weeks), CASODEX alone 150 mg daily) [%] | Increase in mean free testosterone concentration (testosterone; after 24 weeks of daily 150 mg CASODEX alone, prostate cancer (Verhelst et al 1994)) [%] | Change of basal level of total testosterone (testosterone; single agent therapy in humans (Blackledge et al 1996)) | Effect on mean serum testosterone, oestradiol, LH levels, LH pulse frequency and amplitude (testosterone, LH; 13 normal men, tamoxifen for 6 weeks (Spijkstra et al 1988)) | Effect on serum testosterone levels (testosterone, LH; tamoxifen administration to men (Lewis-Jones et al 1987)) | Effect on testosterone and LH (testosterone, LH; tamoxifen intake in adult men (Comhaire et al 1995)) | Effect on basal LH, FSH and testosterone levels (testosterone, LH; three months' treatment, normogonadotrophic oligozoospermic men (van Bergeijk et al 1986))
1 | CC(O)(CS(=O)(=O)c1ccc(F)cc1)C(=O)Nc1ccc(C#N)c(C(F)(F)F)c1 (stereo not drawn) [CASODEX™, 4′-cyano-α′,α′,α′-trifluoro-3-(4-fluorophenylsulphonyl)-2-hydroxy-2-methylpropiono-m-toluidide] | 1.58 | 0.076 | 58 | 57 | approximate doubling |  |  |  | 
2 | CC/C(=C(\c1ccccc1)c1ccc(OCCN(C)C)cc1)c1ccccc1 [tamoxifen, (Z)-2-[p-(1,2-diphenylbut-1-enyl)phenoxy]ethyldimethylamine] |  |  |  |  |  | An increase | marked elevation | increase testosterone and LH | stimulated basal LH, FSH and testosterone levels
